Reference: US4200760A, “Imidazolylalkylthioalkylamino-ethylene derivatives” (Bristol-Myers Company, priority 1978, dated 1980)

Experiments:
histamine H2-receptors [1] = target: T1, histamine H2-receptors (Cavia porcellus, UniProt P47747); test: Histamine H2-receptor antagonism, isolated guinea pig right atria assay; set-up: species or system guinea pig (male Hartley strain); conditions: for Histamine ED50 after test compound / Concentration-Response Curve Displacement Factor: test compound 3 × 10^-5 M; for Histamine ED50 after test compound: 30 minute incubation; for Concentration-Response Curve Displacement Factor: shift of histamine curve to the right
T1 construct: The spontaneously beating right atrium was dissected free from other tissues; from tissue; host or cells: isolated spontaneously beating right atrium, male Hartley guinea pig
Procedure: Subsequent investigations by Hughes and Coret, Proc. Soc. […] Black et al., Agents and Actions, 3, 133 (1973) and Brimblecombe et al., Fed. […] The present comparative studies were carried out using a modification of the procedure reported by Reinhardt et al., Agents and Actions, 4, 217 (1974).
Male Hartley strain guinea pigs (350-450 gm.) were sacrificed by a blow on the head. The heart was excised and placed in a Petri dish of oxygenated (95% O2, 5% CO2) modified Krebs solution (g./liter: NaCl 6.6, KCl 0.35, MgSO4.7 H2 O 0.295, KH2 PO4 0.162, CaCl2 0.238, NaHCO3 2.1 and dextrose 2.09). The spontaneously beating right atrium was dissected free from other tissues and a silk thread (4-O) attached to each end. The atrium was suspended in a 20 ml. muscle chamber containing oxygenated modified Krebs solution maintained at 32° C. Atrial contractions were recorded isometrically by means of a Grass FT 0.03 force displacement transducer and recordings of contractile force and rate were made with a Beckman RP Dynograph.
A resting tension of 1 g. was applied to the atrium and it was allowed to equilibrate for 1 hour.
Concentration-response curve displacement factors were calculated as follows: [formula] […] [formula]

gastric acid output [2] = test: Gastric antisecretory activity in the two hour pylorus ligated (Shay) rat; type: in vivo, rat (male Long Evans); conditions: for ED50: 2 h, read-out: ED50 (acid output); for Potency Ratio: relative to cimetidine
Text: The pyloric ligation procedure in the rat was designed by Shay et al., Gastroenterology, 5, 53 (1945) for the study of perforating gastric ulcers; however, as the method became known, it was also employed as a means of studying rat gastric secretion, Shay et al., Gastroenterology, 26, 906 (1954), Brodie, D. A., Am. J. Dig. Dis., 11, 231 (1966). A modification of this procedure is presently used to evaluate compounds for gastric antisecretory activity.
Male Long Evans rats, 280-300 gm., are used. The animals are placed in individual cages and fasted for 24 hours with free access to water. Under ether anesthesia, the stomach is reached through a midline incision, and a cotton-thread ligature is placed around the pylorus. […] All compounds are solubilized with one equivalent of HCl and brought to the proper volume with water. The animals are returned to their cages from which the water bottles have been removed and two hours later are sacrificed with ether. The stomach is removed and the two hour gastric collection is drained into a graduated test tube for volume determination. Titratable acidity is measured by titrating a one ml. sample to pH 7.0 with 0.02 N NaOH, using an Autoburet and an electrometric pH meter (Radiometer). Titratable acid output is calculated in microequivalents by multiplying the volume in milliliters by the acid concentration in milliequivalents per liter. The percent inhibition of acid output is calculated as follows: [formula]

gastric acid output [3] = test: Gastric antisecretory activity in the gastric fistula dog (histamine-induced gastric acid output); type: in vivo, dog (beagle); conditions: for ED50: Canis lupus familiaris, read-out: ED50 (acid output); for Potency Ratio: relative to cimetidine
Procedure: Thomas type [Thomas, J. E., Proc. Soc. exp. Biol. Med., 46, 260 (1941)] stainless steel cannulae are inserted into the stomachs of beagle dogs (10-12 kg.) just orad to the pyloric gland area near the greater curvature to provide a chronic gastric fistula. Animals are allowed to recover for at least two months before any testing is done. Dogs are fasted overnight (~18 hours) with water ad lib prior to each experiment. The dogs are placed in a sling and an eight inch inside needle catheter (C. R. Baird, Inc.) with a two inch 17 gauge needle is inserted into a leg vein for purposes of drug administration. Gastric secretions are collected every 15 minutes by gravity drainage from the opened cannula. […] A modification of the procedure described by Grossman and Konturek, Gastroenterology, 66, 517 (1974) was followed. […] Each 15 minute sample of gastric juice is measured to the nearest 0.5 ml. and titratable acidity against 0.02 N NaOH (endpoint pH 7.0) is measured with an Autoburet and pH meter (radiometer).The percent inhibition of acid output is calculated as described in the pylorus ligated rat procedure.

histamine H2-receptors [4] = target: T1, histamine H2-receptors; conditions: Black et al., isolated guinea pig right atria; cited from earlier work
gastric secretion = conditions: animals and man; cited from earlier work
[5] = cited from earlier work
H2 receptors = conditions: cited from earlier work
agranulocytosis = conditions: in vivo; cited from earlier work
peptic ulcer disease = conditions: clinical evaluation, Gray et al.; cited from earlier work
[6] = compared with cimetidine and Compound XII
[7] = ip, two hour pylorus ligated rat
[8] = iv, histamine-stimulated gastric fistula dog
[9] = 1.50 μMole/kg iv (BL-5949: one dog at this dose)

T1 sequence (P47747 whole entry): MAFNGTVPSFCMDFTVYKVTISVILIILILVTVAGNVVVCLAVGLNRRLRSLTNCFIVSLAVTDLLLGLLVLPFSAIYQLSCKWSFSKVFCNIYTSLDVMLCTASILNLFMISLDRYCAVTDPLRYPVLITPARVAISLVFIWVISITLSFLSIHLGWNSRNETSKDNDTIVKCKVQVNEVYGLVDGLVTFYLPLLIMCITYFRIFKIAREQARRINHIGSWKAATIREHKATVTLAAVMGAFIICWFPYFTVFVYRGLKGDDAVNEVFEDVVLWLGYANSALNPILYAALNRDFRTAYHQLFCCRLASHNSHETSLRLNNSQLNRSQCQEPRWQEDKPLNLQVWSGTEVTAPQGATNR

Row | Compound | Histamine ED50 after test compound (histamine H2-receptors [1]) [µg/mL] | Concentration-Response Curve Displacement Factor (histamine H2-receptors [1]) | Percent Inhibition Acid Output (gastric acid output [2]; 2.5 μMole/kg ip) [%] | Percent Inhibition Acid Output (gastric acid output [2]; 5 μMole/kg ip) [%] | Percent Inhibition Acid Output (gastric acid output [2]; 20 μMole/kg ip) [%] | ED50 (gastric acid output [2]; [7]) [µmol/kg] | Potency Ratio (gastric acid output [2]; ip) | Percent Inhibition Acid Output (gastric acid output [3]; 0.375 μMole/kg iv) [%] | Percent Inhibition Acid Output (gastric acid output [3]; 0.75 μMole/kg iv) [%] | ED50 (gastric acid output [3]; [8]) [µmol/kg] | Potency Ratio (gastric acid output [3]; iv) | Inhibition of gastric secretion / oral activity (in words) (gastric secretion) | Percent Inhibition Acid Output (gastric acid output [2]; 10 μMole/kg ip) [%] | Percent Inhibition Acid Output (gastric acid output [2]; 40 μMole/kg ip) [%] | Percent Inhibition Acid Output (gastric acid output [3]; [9]) [%] | H2 antagonist activity (in words) (H2 receptors) | Toxicity (agranulocytosis) (agranulocytosis) | also measured
1 | C#CCNC(=C[N+](=O)[O-])NCCSCc1[nH]cnc1C [BL-5949, 1-Nitro-2-(2-propynylamino)-2-{2-[(4-methyl-1H-imidazol-5-yl)methylthio]ethylamino}ethylene] | 14.05 | 46.83 | 33 | 51 | 87 | 4.62 | 2.26 | 62 | 68 | 0.24 | 5.56 | – | – | – | – | – | – | Potency as histamine H2-receptor antagonist in isolated guinea pig atria (in words) (histamine H2-receptors [1]; [6]): more potent than either cimetidine or Compound XII; times as active as Compound XII (histamine H2-receptors [1]; relative to Compound XII): about 2.7 times; Potency as inhibitor of gastric secretion in rats (in words) (gastric acid output [2]; [6]): more potent than either cimetidine or Compound XII; times more potent than Compound XII (gastric acid output [2]; relative to Compound XII, ip): 3.7 times; Percent Inhibition Acid Output (gastric acid output [3]; 0.0938 μMole/kg iv): 34%; Percent Inhibition Acid Output (gastric acid output [3]; 0.1875 μMole/kg iv): 46%; Potency as inhibitor of gastric secretion in dogs (in words) (gastric acid output [3]; [6]): more potent than either cimetidine or Compound XII; times more potent than Compound XII (gastric acid output [3]; relative to Compound XII, iv): 3.8 times
2 | CNC(=S)NCCCCc1cnc[nH]1 [Burimamide] | – | – | – | – | – | – | – | – | – | – | – | inhibits gastric secretion in animals and man | – | – | – | – | – | Type of antagonism at histamine H2-receptors (in words) (histamine H2-receptors [4]): competitive antagonist of these receptors; oral absorption ([5]; oral): poor
3 | CNC(=NC#N)NCCSCc1[nH]cnc1C [Cimetidine] | 4.80 | 25.26 | 9 | 53 | 57 | – | – | – | 37 | – | – | – | 41 | 72 | 53 | as effective an H2 antagonist as metiamide | without producing agranulocytosis | ED50 (gastric acid output [2]; Rattus norvegicus, ip): 10.4 µmol/kg; Percent Inhibition Acid Output (gastric acid output [3]; 3.0 μMole/kg iv): 73%; ED50 (gastric acid output [3]; iv): 1.33 µmol/kg; half-life ([5]; in vivo): relatively short; Efficacy in the treatment of peptic ulcer disease (in words) (peptic ulcer disease): effective therapeutic agent in the treatment of peptic ulcer disease
4 | CNC(=C[N+](=O)[O-])NCCSCc1[nH]cnc1C [Compound XII] | 4.30 | 17.92 | – | – | 64 | 17.2 | 0.61 | 22 | 42 | 0.9 | 1.47 | – | 25 | 86 | 73 | – | – | –
5 | NCCc1c[nH]cn1 [Histamine] | – | – | – | – | – | – | – | – | – | – | – | – | – | – | – | – | – | Histamine ED50 (control, before test compound) (histamine H2-receptors [1]; control of Compound XII series, N=2, contractile rate): 0.24 µg/mL
6 | CNC(=S)NCCSCc1[nH]cnc1C [Metiamide] | – | – | – | – | – | – | – | – | – | – | – | orally active in man | – | – | – | more potent than burimamide | toxicity (agranulocytosis) | –
